Source: patent US20250268903A1, “RXFP1 AGONISTS” (BRISTOL-MYERS SQUIBB COMPANY, priority 2021, published 2025)

These compounds were tested against T1, human RXFP1 (Homo sapiens, UniProt Q9HBX9) (assay: hRXFP1 HEK293 cAMP assay (HTRF)). Settings: HEK293 cells stably expressing human RXFP1, 30 min at room temperature.
T1 construct: expressed in transfected cells
T1 sequence (Q9HBX9 1-757): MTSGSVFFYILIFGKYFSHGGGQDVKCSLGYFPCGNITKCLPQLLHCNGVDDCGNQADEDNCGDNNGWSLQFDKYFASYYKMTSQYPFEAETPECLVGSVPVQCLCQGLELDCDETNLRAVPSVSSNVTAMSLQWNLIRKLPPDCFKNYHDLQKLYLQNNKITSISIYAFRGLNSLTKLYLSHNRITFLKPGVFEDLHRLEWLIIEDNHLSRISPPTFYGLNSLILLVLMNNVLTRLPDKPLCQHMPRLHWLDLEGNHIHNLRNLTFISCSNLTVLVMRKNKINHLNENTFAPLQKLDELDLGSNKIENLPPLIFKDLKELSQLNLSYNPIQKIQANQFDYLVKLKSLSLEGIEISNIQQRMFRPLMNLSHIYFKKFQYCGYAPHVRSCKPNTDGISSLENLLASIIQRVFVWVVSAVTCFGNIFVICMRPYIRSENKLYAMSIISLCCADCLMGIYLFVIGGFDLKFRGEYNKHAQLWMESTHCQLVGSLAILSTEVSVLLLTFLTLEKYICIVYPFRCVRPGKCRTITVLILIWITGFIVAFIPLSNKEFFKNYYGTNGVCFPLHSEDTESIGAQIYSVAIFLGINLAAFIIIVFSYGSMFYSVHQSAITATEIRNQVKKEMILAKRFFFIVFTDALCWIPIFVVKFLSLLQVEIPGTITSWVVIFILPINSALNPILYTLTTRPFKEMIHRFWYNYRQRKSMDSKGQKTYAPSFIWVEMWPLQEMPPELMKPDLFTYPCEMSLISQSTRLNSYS
Assay type: cell-based
Outline: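 HEK293 cells stably expressing human RXFP1 (1500 cells/well) in HBSS/20 mM HEPES/0.05% BSA/0.5 mM IBMX. Compounds were tested at 0.010 nM–50 μM final (2% DMSO) for 30 min at room temperature. cAMP was measured by HTRF and values derived by 4-parameter logistic fit.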
Work on COc1ccc(S(=O)(=O)N2CCC(CCO)CC2)cc1C(=O)N[C@H]1[C@@H](C(=O)Nc2ccc(F)c(C(F)(F)F)c2)[C@H]2CC[C@@H]1/C2=C\C(F)(F)F [Example 219, (1R,2S,3R,4R,7Z)-N-[4-fluoro-3-(trifluoromethyl)phenyl]-3-(5-{[4-(2-hydroxyethyl)piperidin-1-yl]sulfonyl}-2-methoxybenzamido)-7-(2,2,2-trifluoroethylidene) bicyclo[2.2.1]heptane-2-carboxamide] yielded an EC50 of 317 nM. Compound COc1ccc(S(=O)(=O)N2CCN(C)CC2CO)cc1C(=O)N[C@H]1[C@@H](C(=O)Nc2ccc(F)c(C(F)(F)F)c2)[C@H]2CC[C@@H]1/C2=C\C(F)(F)F (some centres unmarked) [Example 218] has an EC50 of 714 nM. COCC/C=C1\C2CCC1[C@H](C(=O)Nc1ccc(F)c(C(F)(F)F)c1)C2NC(=O)c1cc(CCC(C)(C)O)ccc1OC (some centres unmarked) [Example 162, (7Z)-N-[4-fluoro-3-(trifluoromethyl)phe-nyl]-3-[5-(3-hydroxy-3-methylbutyl)-2-methoxybenzamido]-7-(3-methoxypropylidene) bicyclo[2.2.1]heptane-2-carboxamide] was tested, and the EC50 was 1240 nM. In the case of COc1ccc(/C=C/C(=O)N2CC[C@H](O)C2)cc1C(=O)N[C@@H]1C2CCC(/C2=C/C(F)(F)F)[C@@H]1C(=O)Nc1ccc(F)c(C(F)(F)F)c1 (stereo partly drawn) [Example 130, (2S,3R,7Z)-N-[4-fluoro-3-(trifluoromethyl)phe-nyl]-3-{5-[(1E)-3-[(3S)-3-hydroxypyrrolidin-1-yl]-3-oxoprop-1-en-1-yl]-2-methoxybenzamido}-7-(2,2,2-trifluoroethylidene)bi-cyclo[2.2.1]heptane-2-carboxamide], the EC50 is reported as 114 nM. In the case of COc1ccc(CCC(C)(C)O)cc1C(=O)N[C@@H]1C2CCC(/C2=C/C2CCC2)[C@@H]1C(=O)Nc1ccc(F)c(C(F)(F)F)c1 (stereo partly drawn) [Example 87, (2S,3R,7Z)-7-(cyclobutylmethyli-dene)-N-[4-fluoro-3-(trifluoromethyl)phe-nyl]-3-[5-(3-hydroxy-3-methylbutyl)-2-methoxybenzamido] bicyclo[2.2.1]heptane-2-carboxamide], the EC50 is reported as 9 nM. COc1ccc(C2CC2C(=O)O)cc1C(=O)N[C@@H]1C2CCC(/C2=C/C(F)(F)F)[C@@H]1C(=O)Nc1ccc(F)c(C(F)(F)F)c1 (single isomer, unassigned) [Example 63] gave an EC50 of 4420 nM. COc1ccc(C2CC3CC(CO)CC32)cc1C(=O)N[C@H]1[C@@H](C(=O)Nc2ccc(F)c(C(F)(F)F)c2)[C@H]2CC[C@@H]1/C2=C\C1CC1 (single isomer, unassigned) [Example 349] gave an EC50 of 60.9 nM. With COc1ccc(CCCCC(F)(F)F)cc1C(=O)NC1C2CCC(/C2=C/C(F)(F)F)[C@@H]1C(=O)Nc1ccc(F)c(C(F)(F)F)c1 (some centres unmarked) [Example 186, (7Z)-N-[4-fluoro-3-(trifluoromethyl)phe-nyl]-3-[2-methoxy-5-(5,5,5-trifluoropentyl)benza-mido]-7-(2,2,2-trifluoroethylidene)bi-cyclo[2.2.1]heptane-2-carboxamide] the EC50 was 280 nM. COc1ccc(COCC2CC3(C2)OCCO3)cc1C(=O)N[C@H]1[C@@H](C(=O)Nc2ccc(F)c(C(F)(F)F)c2)[C@H]2CC[C@@H]1/C2=C\C1CC1 [Example 286] was tested, and the EC50 was 121 nM. COc1ccc(CCCN(C(=O)OC(C)(C)C)C2CCC2)cc1C(=O)N[C@@H]1C2CCC(/C2=C/C(F)(F)F)[C@@H]1C(=O)Nc1ccc(F)c(C(F)(F)F)c1 (some centres unmarked) [Example 120] showed an EC50 of 304 nM. COc1ccc(CCCCCCO)cc1C(=O)N[C@@H]1C2CCC(/C2=C/C(F)(F)F)[C@@H]1C(=O)Nc1ccc(F)c(C(F)(F)F)c1 (stereo partly drawn) [Example 99, (2S,3R,7Z)-N-[4-fluoro-3-(trifluoromethyl)phe-nyl]-3-[5-(6-hydroxyhexyl)-2-methoxybenzamido]-7-(2,2,2-trifluoroethylidene)bi-cyclo[2.2.1]heptane-2-carboxamide] showed an EC50 of 268 nM.
